Consider one compound from ChEMBL document CHEMBL5214933, “Discovery of Selenium-Containing STING Agonists as Orally Available Antitumor Agents” (J Med Chem, 2022).

Activity calls are given as the source filed them. The calls are words filed in the database; no cut-off is given here.

The target of one data set is CYP3A4 (Homo sapiens, UniProt P08684). In words: Inhibition of recombinant CYP3A4 (unknown origin) using midazolam as substrate assessed as reduction in substrate hydroxylation at 10 uM incubated for 5 mins in presence of NADPH by LC-MS/MS analysis relative to control. Format: ADME. The settings on record: recombinant CYP3A4, probe midazolam.
Sequence of CYP3A4 (P08684 whole entry): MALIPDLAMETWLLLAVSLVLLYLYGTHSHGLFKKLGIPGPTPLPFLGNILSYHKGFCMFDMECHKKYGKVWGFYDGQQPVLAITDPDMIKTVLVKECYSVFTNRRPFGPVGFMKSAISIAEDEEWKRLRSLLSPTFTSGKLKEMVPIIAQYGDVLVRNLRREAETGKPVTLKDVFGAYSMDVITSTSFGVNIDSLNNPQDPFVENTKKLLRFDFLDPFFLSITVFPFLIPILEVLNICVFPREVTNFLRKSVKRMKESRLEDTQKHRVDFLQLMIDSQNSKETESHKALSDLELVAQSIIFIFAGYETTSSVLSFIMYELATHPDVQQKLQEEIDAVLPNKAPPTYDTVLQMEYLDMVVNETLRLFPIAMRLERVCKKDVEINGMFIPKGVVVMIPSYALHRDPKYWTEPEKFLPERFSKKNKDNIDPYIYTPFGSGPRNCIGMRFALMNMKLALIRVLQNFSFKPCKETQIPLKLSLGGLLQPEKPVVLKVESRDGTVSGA
For data set [1], the target named is Stimulator of interferon genes protein (Homo sapiens, UniProt Q86WV6). In words: Agonist activity at STING in human THP-1 cells harboring IRF-inducible luciferase reporter construct assessed as increase in IRF3 phosphorylation at 50 uM measured after 3 hrs by Western blot analysis. Format: cell-based. The settings on record: filed as agonist. (In general: Reporter assays use an easily measured gene product as a stand-in for the process of interest.)
Sequence of Stimulator of interferon genes protein (Q86WV6 whole entry): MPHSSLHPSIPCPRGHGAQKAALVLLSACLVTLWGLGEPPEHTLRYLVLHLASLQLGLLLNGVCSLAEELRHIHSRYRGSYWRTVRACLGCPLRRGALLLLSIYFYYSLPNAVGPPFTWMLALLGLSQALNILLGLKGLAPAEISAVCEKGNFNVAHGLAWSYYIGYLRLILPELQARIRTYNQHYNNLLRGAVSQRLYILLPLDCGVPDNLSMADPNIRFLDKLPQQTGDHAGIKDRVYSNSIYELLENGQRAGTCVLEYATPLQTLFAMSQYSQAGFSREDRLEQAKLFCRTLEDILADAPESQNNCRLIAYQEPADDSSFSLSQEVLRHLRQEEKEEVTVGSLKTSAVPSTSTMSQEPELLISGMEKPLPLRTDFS

Usually inhibition stands for the relative decrease from the control value, in per cent. In the case of `CC[C@H](CC(=O)c1cc2cc(OC)c(OC)cc2[se]1)C(=O)O`, at CYP3A4, the inhibition at 5 min, 10 µM was 13.5%. Further, in data set [1], the result was Active.
